In patent US10294234B2, “HIV inhibitor compounds” (priority 2017, dated 2019):

How the values were obtained:
in vivo = settings: rat, in vivo; for Vd / RAT PO F: male, SD; for Vd / RAT IV CL / RAT IV T1/2: iv; for RAT PO F: 2.5 mg/kg
Protocol: Each dosing group consisted of 3 male naïve SD Rats. At dosing, the animals weighed between 0.27 to 0.32 kg. The animals were fasted overnight prior to dose administration. The test article was administered by intravenous infusion over 30 min. The rate of infusion was adjusted according to the body weight of each animal to deliver a dose of 0.5 or 1.0 mg/kg. For the oral dosing group, the test article was administered to animals by oral gavage administration. Serial venous blood samples (approximately 0.30 mL each) were taken at predose and 0.25, 0.48, 0.58, 0.75, 1.5, 3, 6, 8, 12 and 24 hours post dose for the IV dosing group animals. Blood samples were taken at predose, 0.25, 0.50, 1, 2, 4, 6, 8, 12 and 24 hours post dose for the oral group animals. The blood samples were collected into Vacutainer™ tubes containing EDTA-K2 as the anti-coagulant and were immediately placed on wet ice pending centrifugation for plasma. An LC/MS/MS method was used to measure the concentration of test compound in plasma. Non-compartmental pharmacokinetic analysis was performed on the plasma concentration-time data.

[1] = tested on: HIV-1 (IIIB) in MT-4 cells; assay: MT-4 HIV assay; assay type: cell-based; settings: Human immunodeficiency virus 1, MT4, 120 h; HIV-1 (IIIB), MT-4 cells, 5 days, Cell Titer Glo; read-out: EC50
How it was run: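 MT-4 cells infected with HIV-1 IIIB (1:250 stock dilution) were incubated with 1:3 serially diluted compounds in RPMI with 10% FBS for 5 days at 37 °C. Cell Titer Glo luminescence was the readout. Plates included mock-infected wells, no-drug wells and 5 uM AZT controls.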

[2] = microsomes
How it was run: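 Dog, rat and human liver microsomes (0.5 mg/mL) with NADPH-regenerating cofactor; test compound 1 uM, duplicates. Timepoints 2, 12, 25, 45, 65 min; protein removed by centrifugation, supernatant analysed by LC/MS/MS. Clint from t1/2.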

SMILES	Vd (in vivo)	RAT PO F (in vivo)	RAT IV CL (in vivo)	RAT IV T1/2 (in vivo)	EC50 [1]	Human Pred Cl. [2]	Rat. Pred. Cl. [2]	Dog. Pred. Cl. [2]
COC(=O)N[C@H](C(=O)N[C@@H](Cc1ccc(C#Cc2ccc(N3CC4CCC(C3)N4C3COC3)nc2)cc1)[C@@H](O)CN(Cc1c(F)cc(-c2cc3n(n2)CCOC3)cc1F)NC(=O)[C@@H](NC(=O)OC)C(C)(C)C(F)(F)F)C(C)(C)C(F)(F)F [Example 57, Methyl ((5S,8S,9S,14S)-11-(4-(6,7-dihydro-4H-pyrazolo[5,1-c][1,4]oxazin-2-yl)-2,6-difluorobenzyl)-16,16,16-trifluoro-9-hydroxy-15,15-dimethyl-8-(4-((6-(8-(oxetan-3-yl)-3,8-diazabicyclo[3.2.1]octan-3-yl)pyridin-3-yl)ethynyl)benzyl)-3,6,13-trioxo-5-(1,1,1-trifluoro-2-methylpropan-2-yl)-2-oxa-4,7,11,12-tetraazahexadecan-14-yl)carbamate]	2.45 L/kg	23.2%	6 mL/min/kg	6.28 h	2.91 nM	<0.11 L/H/kg	<0.18 L/H/kg	
COC(=O)N[C@H](C(=O)N[C@@H](Cc1ccc(C#Cc2cnc(N3CC4CCC(C3)N4C3COC3)nc2)cc1)[C@@H](O)CN(Cc1c(F)cc(-c2cnn(C(F)F)c2)cc1F)NC(=O)[C@@H](NC(=O)OC)C(C)(C)C(F)(F)F)C(C)(C)C(F)(F)F [Example 61, Methyl ((5S,8S,9S,14S)-11-(4-(1-(difluoromethyl)-1H-pyrazol-4-yl)-2,6-difluorobenzyl)-16,16,16-trifluoro-9-hydroxy-15,15-dimethyl-8-(4-((2-(8-(oxetan-3-yl)-3,8-diazabicyclo[3.2.1]octan-3-yl)pyrimidin-5-yl)ethynyl)benzyl)-3,6,13-trioxo-5-(1,1,1-trifluoro-2-methylpropan-2-yl)-2-oxa-4,7,11,12-tetraazahexadecan-14-yl)carbamate]	6.5 L/kg	18.5%	7.17 mL/min/kg	12.9 h	4.11 nM	<0.11 L/H/kg	<0.18 L/H/kg	
COC(=O)N[C@H](C(=O)N[C@@H](Cc1ccc(C#Cc2ccc(N3CC4CCC(C3)N4C3COC3)nc2)cc1)[C@@H](O)CN(Cc1c(F)cc(-c2cnn(C(F)F)c2)cc1F)NC(=O)[C@@H](NC(=O)OC)C(C)(C)C(F)(F)F)C(C)(C)C(F)(F)F [Example 71, Methyl ((5S,8S,9S,14S)-11-(4-(1-(difluoromethyl)-1H-pyrazol-4-yl)-2,6-difluorobenzyl)-16,16,16-trifluoro-9-hydroxy-15,15-dimethyl-8-(4-((6-(8-(oxetan-3-yl)-3,8-diazabicyclo[3.2.1]octan-3-yl)pyridin-3-yl)ethynyl)benzyl)-3,6,13-trioxo-5-(1,1,1-trifluoro-2-methylpropan-2-yl)-2-oxa-4,7,11,12-tetraazahexadecan-14-yl)carbamate]	7.26 L/kg	24.6%	15 mL/min/kg	9.27 h	3.37 nM	<0.11 L/H/kg	<0.18 L/H/kg	0.47 L/H/kg
COC(=O)N[C@H](C(=O)N[C@@H](Cc1ccc(C#Cc2ccc(N3CC4CCC(C3)N4C3COC3)nc2)cc1)[C@@H](O)CN(Cc1c(F)cc(-c2ccccn2)cc1Cl)NC(=O)[C@@H](NC(=O)OC)C(C)(C)C(F)(F)F)C(C)(C)C(F)(F)F [Example 74, Methyl ((5S,8S,9S,14S)-11-(2-chloro-6-fluoro-4-(pyridin-2-yl)benzyl)-16,16,16-trifluoro-9-hydroxy-15,15-dimethyl-8-(4-((6-(8-(oxetan-3-yl)-3,8-diazabicyclo[3.2.1]octan-3-yl)pyridin-3-yl)ethynyl)benzyl)-3,6,13-trioxo-5-(1,1,1-trifluoro-2-methylpropan-2-yl)-2-oxa-4,7,11,12-tetraazahexadecan-14-yl)carbamate]	5.07 L/kg	35.8%	6.5 mL/min/kg	11.6 h	6.79 nM	0.17 L/H/kg	0.2 L/H/kg	1.53 L/H/kg
COC(=O)N[C@H](C(=O)N[C@@H](Cc1ccc(C#Cc2ccc(N3CC4CCC(C3)N4C3COC3)nc2)cc1)[C@@H](O)CN(Cc1c(F)cc(-c2cn(C(F)F)cn2)cc1F)NC(=O)[C@@H](NC(=O)OC)C(C)(C)C(F)(F)F)C(C)(C)C(F)(F)F [Example 79, Methyl ((5S,8S,9S,14S)-11-(4-(1-(difluoromethyl)-1H-imidazol-4-yl)-2,6-difluorobenzyl)-16,16,16-trifluoro-9-hydroxy-15,15-dimethyl-8-(4-((6-(8-(oxetan-3-yl)-3,8-diazabicyclo[3.2.1]octan-3-yl)pyridin-3-yl)ethynyl)benzyl)-3,6,13-trioxo-5-(1,1,1-trifluoro-2-methylpropan-2-yl)-2-oxa-4,7,11,12-tetraazahexadecan-14-yl)carbamate]	4.07 L/kg	13.1%	12.8 mL/min/kg	5.13 h	3.53 nM	<0.11 L/H/kg	<0.18 L/H/kg	
COC(=O)N[C@H](C(=O)N[C@@H](Cc1ccc(C#Cc2ccc(N3CC4CCC(C3)N4C3COC3)nc2)cc1)[C@@H](O)CN(Cc1c(F)cc(-c2ccccn2)cc1F)NC(=O)[C@@H](NC(=O)OC)C(C)(C)C(F)(F)F)C(C)(C)C(F)(F)F [Example 130, Methyl ((5S,8S,9S,14S)-11-(2,6-difluoro-4-(pyridin-2-yl)benzyl)-16,16,16-trifluoro-9-hydroxy-15,15-dimethyl-8-(4-((6-(8-(oxetan-3-yl)-3,8-diazabicyclo 3.2.1 octan-3-yl)pyridin-3-yl)ethynyl)benzyl)-3,6,13-trioxo-5-(1,1,1-trifluoro-2-methylpropan-2-yl)-2-oxa-4,7,11,12-tetraazahexadecan-14-yl)carbamate]	5.27 L/kg	55.7%	6.5 mL/min/kg	11.5 h	3.41 nM	0.32 L/H/kg	<0.18 L/H/kg	
COC(=O)N[C@H](C(=O)N[C@@H](Cc1ccc(C#Cc2ccc(N3CC4COCC(C3)N4C3COC3)nc2)cc1)[C@@H](O)CN(Cc1c(F)cc(-c2ccn(C(F)F)n2)cc1F)NC(=O)[C@@H](NC(=O)OC)C(C)(C)C(F)(F)F)C(C)(C)C(F)(F)F [Example 180, Methyl ((5S,8S,9S,14S)-11-(4-(1-(difluoromethyl)-1H-pyrazol-3-yl)-2,6-difluorobenzyl)-16,16,16-trifluoro-9-hydroxy-15,15-dimethyl-8-(4-((6-(9-(oxetan-3-yl)-3-oxa-7,9-diazabicyclo[3.3.1]nonan-7-yl)pyridin-3-yl)ethynyl)benzyl)-3,6,13-trioxo-5-(1,1,1-trifluoro-2-methylpropan-2-yl)-2-oxa-4,7,11,12-tetraazahexadecan-14-yl)carbamate]	0.52 L/kg	4.29%	6.5 mL/min/kg	2.81 h	3.69 nM	<0.11 L/H/kg	<0.18 L/H/kg	
